In patent US20050159599A1, “Cyclic compound, process for producing the same, and pest control agent” (priority 2002, published 2005):

Key:
Spodoptera litura [1] = experiment: Insecticidal effect for Spodoptera litura by immersion treatment of host crop root (Test Example 4); type: in vivo; details: soybean root immersion 5 days, second-instar larvae of Spodoptera litura, fifth day after; for pest or weed control at 25 ppm: 120 h, read-out: rate of dead pests (%)
Description: Insecticidal Effect for Spodoptera litura by Immersion Treatment of Host Crop Root Roots of primary leaves developing stage soybean was washed with tap water to remove soil, and then immersed in a pesticidal solution which was prepared by dissolving 5 mg of test compound (represented by the compound Nos. in the above Examples) in 0.5 ml of acetone containing Tween 20 ([…]) with ion-exchange water, and which was filled in a light-shielded Erlenmeyer flask (100 ml). On the fifth day after immersion of root, two primary leaves were cut off, and the leaves were put into an ice cream cup (180 ml). Ten second-instar larvae of Spodoptera litura were set free therein, and the cup was left in a temperature-controlled breeding room (25° C.). On the fifth day after, the number of surviving Spodoptera litura was examined. The rate of dead pests was calculated by the following formula. rate of dead pests (%)=(number of dead pests/number of test pests)×100

Spodoptera litura [2] = experiment: Insecticidal effect for Spodoptera litura by spraying treatment to host crop (Test Example 2); type: in vivo; details: 100 ppm, sprayed on soybean, third-instar larvae of Spodoptera litura, fifth day after; for pest or weed control at 100 ppm: 120 h, read-out: rate of dead pests (%)
Description: Insecticidal Effect for Spodoptera litura by Spraying Treatment to Host Crop
A pesticidal solution, which was prepared by dissolving 5 mg of test compound (represented by the compound Nos. in the above Examples) in 0.5-ml of acetone containing Tween 20 (trade name) and then diluting it to the prescribed concentration (100 ppm) with Dain (trade name, sticker) water diluted 5000-fold, was sprayed on a soybean whose primary leaves had developed completely with spray gun in the amounts wherein the pesticidal solution dripped. After drying the pesticidal solution, two primary leaves were cut off. The leaves were put into an ice cream cup (180 ml), and ten third-instar larvae of Spodoptera litura were set free therein. The cup was left in a temperature-controlled breeding room (25° C.). On the fifth day after, the number of surviving Spodoptera litura was examined. The rate of dead pests was calculated by the following formula. rate of dead pests (%)=(number of dead pests/number of test pests)×100

SMILES | rate of dead pests (%) (Spodoptera litura [1]; 25 ppm) | rate of dead pests (%) (Spodoptera litura [2]) | other results
O=C(c1c(F)cccc1F)N1COCN(c2ccc(Cl)cc2)C1=O [I-1, 3-(4-chlorophenyl)-5-(2,6-difluorobenzoyl)tetrahydro-4H-1,3,5-oxadiazin-4-one] | – | – | pest or weed control at 25 ppm (Spodoptera litura [1]; 25 ppm): 100%; pest or weed control at 100 ppm (Spodoptera litura [2]): 100%
C[S+]([O-])c1cc(F)c(N2COCN(C(=O)c3c(F)cccc3F)C2=O)c(F)c1 (stereo not shown) [I-32] | 90% | 100% | –
O=C(c1c(F)cccc1F)N1COCN(c2ccc(SCC=C(Cl)Cl)cc2F)C1=O [I-37] | 100% | 100% | –
O=C(c1c(F)cccc1F)N1COCN(CC(F)(F)F)C1=O [I-40] | 100% | 100% | –
CCSc1ccc(N2COCN(C(=O)c3c(F)cccc3F)C2=O)c(F)c1 [I-47] | 100% | 100% | –
CC[S+]([O-])c1ccc(N2COCN(C(=O)c3c(F)cccc3F)C2=O)c(F)c1 (stereo not shown) [I-48] | 100% | – | –
CCCSc1ccc(N2COCN(C(=O)c3c(F)cccc3F)C2=O)c(F)c1 [I-50] | 100% | – | –
CC(C)Sc1ccc(N2COCN(C(=O)c3c(F)cccc3F)C2=O)c(F)c1 [I-53] | 100% | 100% | –
C=CCSc1ccc(N2COCN(C(=O)c3c(F)cccc3F)C2=O)c(F)c1 [I-59] | 100% | 100% | –
C#CCSc1ccc(N2COCN(C(=O)c3c(F)cccc3F)C2=O)c(F)c1 [I-62] | – | 100% | rate of dead pests (%) (Spodoptera litura [1]; 5 ppm (so in the source)): 100%
O=C(c1c(F)cccc1F)N1COCN(c2ccc(SC(F)(F)F)cc2Cl)C1=O [I-74] | 100% | 100% | –
O=C(c1c(F)cccc1F)N1COCN(c2ccc([S+]([O-])C(F)(F)F)c(Cl)c2Cl)C1=O (stereo not shown) [I-93] | 100% | 100% | –
O=C(c1c(F)cccc1F)N1COCN(c2cc(Cl)c(SC(F)(F)F)cc2F)C1=O [I-98] | 95% | 100% | –
O=C(c1c(F)cccc1F)N1COCN(c2c(F)cc(SC(F)(F)F)cc2Cl)C1=O [I-101] | 100% | 100% | –
O=C(c1c(F)cccc1F)N1COCN(c2c(F)cc(SC(F)(F)F)cc2F)C1=O [I-104] | 100% | 100% | –
Cc1c(N2COCN(C(=O)c3c(F)cccc3F)C2=O)ccc(SC(F)(F)F)c1Cl [I-122] | 95% | 100% | –
O=C(c1c(F)cccc1F)N1COCN(c2ccc(SC(F)(F)C(F)(F)F)cc2F)C1=O [I-128, 3-(2,6-difluorobenzoyl)-5-[2-fluoro-4-(1,1,2,2,2-pentafluoroethylthio)phenyl]tetrahydro-4H-1,3,5-oxadiazin-4-one] | – | – | pest or weed control at 25 ppm (Spodoptera litura [1]; 25 ppm): 100%; pest or weed control at 100 ppm (Spodoptera litura [2]): 100%
O=C(c1c(F)cccc1Cl)N1COCN(c2ccc(SC(F)(F)F)cc2Cl)C1=O [I-251] | 90% | – | –
Cc1cc(SC(F)(F)C(F)(F)C(F)(F)F)c(Cl)cc1N1COCN(C(=O)c2c(F)cccc2Cl)C1=O [I-329] | – | 100% | –
Cc1cc([S+]([O-])C(F)(F)C(F)(F)C(F)(F)F)c(Cl)cc1N1COCN(C(=O)c2c(F)cccc2Cl)C1=O (stereo not shown) [I-330] | – | 100% | –
O=C(c1c(Cl)cccc1Cl)N1COCN(c2ccc(SC(F)F)cc2F)C1=O [I-395] | – | 100% | –
O=C(c1c(Cl)cccc1Cl)N1COCN(c2ccc([S+]([O-])C(F)F)cc2F)C1=O (stereo not shown) [I-396] | 100% | – | –
O=C(c1c(F)cccc1F)N1CSCN(CC(F)(F)F)C1=O [II-64] | 95% | – | –
CN1CN(C(=O)c2c(F)cccc2F)C(=O)N(c2ccc(Cl)cc2)C1 [III-1, 1-(4-chlorophenyl)-3-(2,6-difluorobenzoyl)-5-methyltetrahydro-1,3,5-triazin-2(1H)-one] | – | – | pest or weed control at 100 ppm (Spodoptera litura [2]): 100%
O=C(c1c(F)cccc1F)N1CN(Cc2ccccc2)CN(c2ccc(Cl)cc2)C1=O [III-4] | – | 100% | –

SMILES | rate of dead pests (%) (Spodoptera litura [1]; 25 ppm) | rate of dead pests (%) (Spodoptera litura [2]) | other results
C=CCN1CN(C(=O)c2c(F)cccc2F)C(=O)N(c2ccc(Cl)cc2)C1 [III-5, 5-allyl-1-(4-chlorophenyl)-3-(2,6-difluorobenzoyl)tetrahydro-1,3,5-triazin-2 (1H)-one] | – | – | pest or weed control at 100 ppm (Spodoptera litura [2]): 100%
O=C(c1c(F)cccc1F)N1CNCN(c2ccc(Cl)cc2)C1=O [III-6, 1-(4-chlorophenyl)-3-(2,6-difluorobenzoyl)tetrahydro-1,3,5-triazin-2(1H)-one] | – | – | pest or weed control at 100 ppm (Spodoptera litura [2]): 100%
O=C(OCc1ccccc1)N1CN(C(=O)c2c(F)cccc2F)C(=O)N(c2ccc(Cl)cc2)C1 [III-7, 5-benzyloxycarbonyl-1-(4-chlorophenyl)-3-(2,6-difluorobenzoyl)tetrahydro-1,3,5-triazin-2 (1H)-one] | – | – | pest or weed control at 100 ppm (Spodoptera litura [2]): 100%
CC(=O)N1CN(C(=O)c2c(F)cccc2F)C(=O)N(c2ccc(Cl)cc2)C1 [III-9, 5-acetyl-1-(4-chlorophenyl)-3-(2,6-difluorobenzoyl)tetrahydro-1,3,5-triazin-2(1H)-one] | – | – | pest or weed control at 25 ppm (Spodoptera litura [1]; 25 ppm): 95%
CC(c1ccccc1)N1CN(C(=O)c2c(F)cccc2F)C(=O)N(c2ccc(Cl)cc2)C1 (stereo not shown) [III-14] | – | 100% | –
COC(=O)C(=O)N1CN(C(=O)c2c(F)cccc2F)C(=O)N(c2ccc(Cl)cc2)C1 [III-15] | 95% | – | –
O=C(OCc1ccccc1)N1CN(C(=O)c2c(F)cccc2F)C(=O)N(c2ccc(Oc3ccc(C(F)(F)F)cc3Cl)cc2F)C1 [III-22, 5-benzyloxycarbonyl-1-[4-(2-chloro-4-trifluoromethylphenoxy)-2-fluorophenyl]-3-(2,6-difluorobenzoyl)tetrahydro-1,3,5-triazin-2(1H)-one] | – | – | pest or weed control at 100 ppm (Spodoptera litura [2]): 100%
O=C(c1c(F)cccc1F)N1CN(Cc2ccccc2)CN(c2ccc(Oc3ccc(C(F)(F)F)cc3Cl)cc2F)C1=O [III-29] | – | 100% | –
O=C(c1c(F)cccc1F)N1CN(c2ccccc2)CN(c2ccc(Oc3ccc(C(F)(F)F)cc3Cl)cc2F)C1=O [III-30] | – | 100% | –
O=C(c1c(F)cccc1F)N1CN(C(=O)C(F)(F)F)CN(c2ccc(Oc3ccc(C(F)(F)F)cc3Cl)cc2F)C1=O [III-32] | – | 100% | –
O=C(c1c(F)cccc1F)N1CN(C2CC2)CN(c2ccc(Oc3ccc(C(F)(F)F)cc3Cl)cc2F)C1=O [III-36] | – | 100% | –
CN1CN(C(=O)c2c(F)cccc2F)C(=O)N(c2cc(Cl)c(F)c(Cl)c2F)C1 [III-51] | – | 100% | –
CC(C)N1CN(C(=O)c2c(F)cccc2F)C(=O)N(c2cc(Cl)c(F)c(Cl)c2F)C1 [III-52] | – | 100% | –
O=C(c1c(F)cccc1F)N1CN(C2CC2)CN(c2cc(Cl)c(F)c(Cl)c2F)C1=O [III-53] | – | 100% | –
CN1CN(C(=O)c2c(F)cccc2F)C(=O)N(c2cc(Cl)c(OC(F)(F)C(F)C(F)(F)F)cc2Cl)C1 (stereo not shown) [III-69] | – | 100% | –
CN1CN(C(=O)c2c(F)cccc2F)C(=O)N(c2ccc(SC(F)(F)C(F)Cl)cc2F)C1 (stereo not shown) [III-76] | – | 100% | –
CN1CN(CC(F)(F)F)C(=O)N(C(=O)c2c(F)cccc2F)C1 [III-144] | 100% | – | –
CS(=O)(=O)N1CN(C(=O)c2c(F)cccc2F)C(=O)N(c2ccc(SC(F)F)cc2F)C1 [III-150] | – | 100% | –
CC(=O)N1CN(C(=O)c2c(F)cccc2F)C(=O)N(c2ccc(SC(F)(F)F)cc2F)C1 [III-161, 1-(2,6-difluorobenzoyl)-3-[2-fluoro-4-(trifluoromethylthio)phenyl]-5-aceyltetrahydro-1,3,5-triazin-2(1H)-one] | – | 100% | –
CS(=O)(=O)N1CN(C(=O)c2c(F)cccc2F)C(=O)N(c2ccc(SC(F)(F)F)cc2F)C1 [III-162, 1-(2,6-difluorobenzoyl)-3-[2-fluoro-4-(trifluoromethylthio)phenyl]-5-methylsulfonyltetrahydro-1,3,5-triazin-2(1H)-one] | – | – | pest or weed control at 100 ppm (Spodoptera litura [2]): 100%
CC(=O)N1CN(C(=O)c2c(F)cccc2F)C(=O)N(c2ccc([S+]([O-])C(F)(F)F)cc2F)C1 (stereo not shown) [III-165] | – | 100% | –
CS(=O)(=O)N1CN(C(=O)c2c(F)cccc2F)C(=O)N(c2ccc([S+]([O-])C(F)(F)F)cc2F)C1 (stereo not shown) [III-166] | – | 100% | –
Cc1cc(SC(F)(F)F)ccc1N1CN(C)CN(C(=O)c2c(F)cccc2Cl)C1=O [III-455] | – | 100% | –
O=C(c1c(F)cccc1F)N1C=NCN(c2cc(Cl)c(F)c(Cl)c2F)C1=O [IV-4, 3-(3,5-dichloro-2,4-difluorophenyl)-1-(2,6-difluorobenzoyl)-3,4-dihydro-1,3,5-triazin-2(1H)-one] | – | – | pest or weed control at 25 ppm (Spodoptera litura [1]; 25 ppm): 100%
